Data taken from patent US10800778B2 (Entasis Therapeutics Limited, priority 2016, dated 2020).
Structures can show the parent of a compound that is named as a salt.

Key:
[1] = Stability/conversion of esters in human liver S9; assay type: in vitro ADME; conditions: liver S9, pH 7.4, read-out: T1/2 Human Liver S9
Summary of the method: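 Ester test compounds (10 μM) were incubated at 37° C with human liver S9 at 0.8 mg/mL in 100 mM HEPES buffer, pH 7.4. Aliquots taken from 0 to 60 min were quenched in acetonitrile containing carbutamide internal standard, centrifuged, and analyzed by LC-MS/MS MRM; first-order half-lives came from loss of the parent ester.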

[2] = Stability/conversion of esters in human intestinal S9; assay type: in vitro ADME; conditions: intestinal S9 (without PMSF), pH 7.4, read-out: T1/2 Human Intestinal S9
Summary of the method: (§1)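 Esters at 10 μM incubated at 37 °C with 0.8 mg/mL S9 (human intestinal without PMSF, rat liver or rat intestinal) or no enzyme, in 100 mM HEPES pH 7.4; sampled 0–60 min. LC-MS/MS tracked ester and hydrolysed active; first-order T1/2 from ester disappearance.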

[3] = Rat PK, intravenous and oral; assay type: in vivo, Sprague-Dawley rats; conditions: for AUC: Sprague-Dawley, plasma, rat
Method: Intravenous rat pharmacokinetics of exemplar compounds were determined in jugular vein cannulated Sprague-Dawley rats (n=3) (Harlan Laboratories, Indianapolis, Ind.) at a dose of 10 mg/kg. Compounds were dissolved and administered intravenously in 0.9% saline, pH 6.5 at a dose volume of 2 mL/kg. […] Oral pharmacokinetic studies were conducted with exemplar compounds at 10 mg/kg equivalents of carboxylic acids. Doses were dissolved and administered orally in 25:75 PEG400: water for injection, pH 4.5 at a dose volume of 10 mL/kg. […] Plasma samples were stored at −80° C. prior to bioanalysis.
Plasma samples were thawed on ice prior to processing. Samples (30 μL) were diluted and proteins precipitated with 180 μL of acetonitrile containing 0.1% formic acid and 250 ng/mL of carbutamide (N1-(butylcarbanoyl)-sulfanilamide, Sigma-Aldrich Catalog # S385433) as an internal standard. Samples were vortexed for 30 seconds, centrifuged at 3400 g for 10 minutes and the supernatant transferred to injection vials.
LC/MS/MS analysis was completed on an AB Sciex QTrap 6500 mass spectrometer in positive ionization mode, coupled to a Schimadzu Nexera LC system. A Waters Atlantis T3 (3 μm, 3.0×50 mm) column was used for chromatographic separation. Injection volume was […] The mobile phase consisted 0.1% formic acid in water (A) and 0.1% formic acid in acetonitrile (B), with a gradient of 2-98% B:A over two minutes.
Plasma concentration vs. time profiles following intravenous (IV) administration and oral (PO) administration of exemplar compounds were analyzed by non-compartment analysis using WinNonLin 6.4.

[4] = Stability/conversion of esters in rat liver S9; assay type: in vitro ADME; conditions: liver S9, pH 7.4, read-out: T1/2 Rat Liver S9
Summary of the method: as §1

[5] = Stability in pH 7.4 buffer (no enzyme); assay type: physicochemical; conditions: HEPES buffer without enzyme, read-out: T1/2 pH 7.4 Buffer
Summary of the method: as §1

[6] = Stability/conversion of esters in rat intestinal S9; assay type: in vitro ADME; conditions: intestinal S9, pH 7.4, read-out: T1/2 Rat Intestinal S9
Summary of the method: as §1

[7] = target: OXA-48 (Class D beta-lactamase) (Klebsiella pneumoniae, UniProt Q6XEC0); test: Inhibition of beta-lactamase enzymes (nitrocefin hydrolysis), OXA-48; assay type: biochemical; conditions: read-out: Class D OXA-48 60 min IC50, nitrocefin 100 μM
Summary of the method: (§2)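 Nitrocefin (100 μM) hydrolysis followed at 490 nm for 1 h in 0.1 M sodium phosphate pH 7.0, 10 mM NaHCO3, 0.005% Triton X-100, with 3-fold inhibitor dilutions from 100 μM to 62.7 pM. Progress curves fitted globally to give kinact/Ki or Ki; percent inhibition from best-fit absorbance fitted with Hill equation.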

E. coli WT (ATCC 25922) = test: MIC, CLSI broth microdilution, beta-lactam with or without BLI; assay type: cell-based; conditions: BLI at fixed 4 μg/ml
Method: (§3) The minimal inhibitory concentration (MIC) values against each organism and drug combination were determined using the Clinical and Laboratory Standards Institute guidelines (CLSI) broth microdilution methodology (CLSI M07-A10). The recommended quality control (QC) bacterial strains E. coli ATCC 25922, E. coli ATCC 35218 and Klebsiella pneumoniae ATCC 700603 were incorporated into each test according to the CLSI guidelines to assure that there was no variation between test dates (CLSI M100-S25). The MICs of these QC strains were within QC range on all test occasions. Drug containing plates were made using the master plate method. A cefpodoxime solution was prepared to 20× concentration and 2-fold serial dilutions were made in cation adjusted Mueller-Hinton Broth. Equal volumes of 20× examplar compounds at a fixed concentration were added to the master plate. 10 uL was stamped into daughter plates using a Tecan EVO robot. Organism suspensions were adjusted to a 0.5 McFarland standard and further diluted to yield a final inoculum between 3×10^5 and 7×10^5 colony-forming units (CFU)/mL. Bacterial inocula were made in sterile, cation adjusted Mueller-Hinton Broth (Beckton Dickinson). An inoculum volume of 1.1× concentration of 90 uL was added to wells (using a Tecan EVO robot). All inoculated microdilution plates were incubated in ambient air at 35° C. for 18-24 hours.
(§4) Following the procedure from Example 103, MICs were determined for several beta-lactams in presence of a fixed concentration (4 μg/mL) of exemplar compounds (Table 3) against 3 Enterobacteriaceae strains.

[8] = test system: Klebsiella pneumoniae SHV-18, OXA-2, OKP-6 (ATCC 700603); test: as above; assay type: cell-based; conditions: BLI at fixed 4 μg/ml; K. pneumoniae ATCC 700603
Method: as §3, §4

[9] = test system: C. freundii AmpC, TEM-1, CMY65; test: as above; assay type: cell-based; conditions: BLI at fixed 4 μg/ml
Method: as §3, §4

[10] = target: TEM-1 (Class A beta-lactamase) (Escherichia coli, UniProt P62593); test: Inhibition of beta-lactamase enzymes (nitrocefin hydrolysis), TEM-1; assay type: biochemical; conditions: read-out: Class A TEM-1 60 min IC50, nitrocefin 100 μM
Summary of the method: as §2

[11] = 10 mg/kg, PO, analyte = compound administered (sulfate-derived comparator)
[12] = IV 10 mg/kg, analyte = compound administered

Sequence of TEM-1 (Class A beta-lactamase) (P62593 whole entry, looked up, species assumed): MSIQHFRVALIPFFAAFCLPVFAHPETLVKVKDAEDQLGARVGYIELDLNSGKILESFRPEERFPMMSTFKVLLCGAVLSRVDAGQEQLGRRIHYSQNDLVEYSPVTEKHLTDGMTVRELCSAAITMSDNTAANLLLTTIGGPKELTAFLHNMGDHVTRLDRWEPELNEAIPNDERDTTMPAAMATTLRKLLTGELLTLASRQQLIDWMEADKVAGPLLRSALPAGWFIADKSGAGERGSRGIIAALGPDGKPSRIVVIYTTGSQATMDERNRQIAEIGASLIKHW
Sequence of OXA-48 (Class D beta-lactamase) (Q6XEC0 whole entry, looked up, species assumed): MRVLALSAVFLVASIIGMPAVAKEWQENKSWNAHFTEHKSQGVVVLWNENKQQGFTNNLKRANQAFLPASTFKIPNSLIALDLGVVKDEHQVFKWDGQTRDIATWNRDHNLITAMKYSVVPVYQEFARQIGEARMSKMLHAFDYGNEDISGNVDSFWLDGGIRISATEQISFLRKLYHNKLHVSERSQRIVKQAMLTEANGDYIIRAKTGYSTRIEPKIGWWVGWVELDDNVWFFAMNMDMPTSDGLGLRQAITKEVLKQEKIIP

| SMILES | AUC [3, 11] | AUC [3, 12] | IC50 [7] | MIC of cefixime in presence of BLI (E. coli WT (ATCC 25922)) | MIC of cefuroxime in presence of BLI (E. coli WT (ATCC 25922)) | MIC of faropenem in presence of BLI (E. coli WT (ATCC 25922)) | MIC of tebipenem in presence of BLI (E. coli WT (ATCC 25922)) | MIC of cefixime in presence of BLI [8] | MIC of faropenem in presence of BLI [8] | MIC of tebipenem in presence of BLI [8] | MIC of cefixime in presence of BLI [9] | MIC of cefuroxime in presence of BLI [9] | MIC of faropenem in presence of BLI [9] | MIC of tebipenem in presence of BLI [9] | IC50 [10] | also measured |
| --- | --- | --- | --- | --- | --- | --- | --- | --- | --- | --- | --- | --- | --- | --- | --- | --- |
| CC1=C[C@@H]2CN(C(=O)N2O[C@H](F)C(=O)OC(C)C)[C@@H]1C(N)=O [Example 12, propan-2-yl (2R)-{[(2S,5R)-2-carbamoyl-3-methyl-7-oxo-1,6-diazabicyclo[3.2.1]oct-3-en-6-yl]oxy}(fluoro)ethanoate] | – | – | – | – | – | – | – | – | – | – | – | – | – | – | – | half-life at 10 μM [1]: 0.267 h; half-life at 10 μM [2]: 2.2 h; Circulating concentrations of the ester in plasma ([3]; rat plasma, LC/MS/MS): Rapid hydrolysis precluded satisfactory analysis of circulating concentrations; half-life at 10 μM [4]: 0.233 h; half-life at 10 μM [5]: 3.93 h; half-life at 10 μM [6]: 3.88 h |
| N#CC1CC[C@@H]2CN1C(=O)N2OS(=O)(=O)O (stereo partly shown) [WCK 4234, reference compound] | 0.45 µM·h | – | – | – | – | – | – | – | – | – | – | – | – | – | – | – |
| O=C(NC1CCNCC1)[C@@H]1CC[C@@H]2CN1C(=O)N2OS(=O)(=O)O [Relebactam, reference compound] | 0.29 µM·h | – | – | – | – | – | – | – | – | – | – | – | – | – | – | – |
| CC1=C[C@@H]2CN(C(=O)N2OS(=O)(=O)O)[C@@H]1C(N)=O [ETX2514, reference compound] | 0.44 µM·h | – | – | – | – | – | – | – | – | – | – | – | – | – | – | – |
| CC1=C[C@@H]2CN(C(=O)N2O[C@@H](F)C(=O)O)[C@@H]1C(N)=O [Example 3, (2S)-{[(2S,5R)-2-carbamoyl-3-methyl-7-oxo-1,6-diazabicyclo[3.2.1]oct-3-en-6-yl]oxy}(fluoro)ethanoic acid lithium salt] | – | 34.9 µM·h | 15 nM | 0.125 µg/mL | 0.02 µg/mL | 0.25 µg/mL | ≤0.06 µg/mL | 0.5 µg/mL | 2 µg/mL | 0.125 µg/mL | 1 µg/mL | 1 µg/mL | 0.25 µg/mL | ≤0.06 µg/mL | 19 nM | – |
| CC1=C[C@@H]2CN(C(=O)N2O[C@H](F)C(=O)O)[C@@H]1C(N)=O [Example 4, (2R)-{[(2S,5R)-2-carbamoyl-3-methyl-7-oxo-1,6-diazabicyclo[3.2.1]oct-3-en-6-yl]oxy}(fluoro)ethanoic acid lithium salt] | – | 19.1 µM·h | 15 nM | ≤0.06 µg/mL | 0.02 µg/mL | ≤0.06 µg/mL | ≤0.06 µg/mL | ≤0.06 µg/mL | 1 µg/mL | ≤0.06 µg/mL | ≤0.06 µg/mL | 0.02 µg/mL | ≤0.06 µg/mL | ≤0.06 µg/mL | 1.35 nM | – |
| CC1=C[C@@H](C(N)=O)N2C[C@@H]1N(O[C@@H](F)C(=O)O)C2=O [Example 34, (2S)-2-(((2S,5R)-2-carbamoyl-4-methyl-7-oxo-1,6-diazabicyclo[3.2.1]oct-3-en-6-yl)oxy)-2-fluoroacetic acid lithium salt] | – | 16.1 µM·h | 19 nM | ≤0.06 µg/mL | <0.03125 µg/mL | ≤0.06 µg/mL | ≤0.06 µg/mL | ≤0.06 µg/mL | 0.5 µg/mL | ≤0.06 µg/mL | ≤0.06 µg/mL | <0.03125 µg/mL | ≤0.06 µg/mL | ≤0.06 µg/mL | 26 nM | MIC of cefuroxime in presence of BLI [8]: 1 µg/mL |
